According to patent US20240216335A1, “COMPOSITION FOR INCREASING LEUKOCYTES AND/OR BASOPHILS” (SUNTORY HOLDINGS LIMITED, priority 2021, published 2024):

Assays:
[1] = tested on: blood leukocytes and basophils; experiment: Study on evaluation of blood leukocyte count and basophil count in humans (placebo-controlled, randomized, double-blind, parallel-group); assay type: in vivo; conditions: one capsule with 20 mg L-ergothioneine per day orally for four weeks, week 4 vs pre-testing, compared with control food group
Procedure: In order to evaluate the influence of supplements containing ergothioneine on blood leukocyte count and basophil count in humans, a placebo-controlled, randomized, double-blind, parallel-group study was conducted on subjects including male and female adults (46 subjects in a test food group; 46 subjects in a control food group; 92 subjects in total). In this study, one capsule containing 20 mg ergothioneine (test food) or one capsule not containing ergothioneine (control food) was fed per day for four weeks. The blood leukocyte count and basophil count in each subject were measured for pre-testing before starting the study (before starting ingestion of the test food or control food). After ingestion of the test food or control food for four weeks, the blood leukocyte count and basophil count in each subject were measured again (testing on week 4). […] Specifically, the amount of change in the test food group at the time of testing on week 4 was determined for the test food group by subtracting the blood leukocyte count (average) at the time of pre-testing from the blood leukocyte count (average) at the time of testing on week 4. Similarly, the amount of change at the time of testing on week 4 was determined for the control food group by subtracting the blood leukocyte count (average) at the time of pre-testing from the blood leukocyte count (average) at the time of testing on week 4. […]

[2] = target: T1, recombinant human epidermal growth factor receptor (EGFR) tyrosine kinase (Homo sapiens, UniProt P00533); experiment: Evaluation of activity to inhibit substrate binding of EGFR tyrosine kinase ([32P]Poly(Glu:Tyr) formation, Eurofins Panlabs); assay type: biochemical; conditions: 100 or 1000 μM L-ergothioneine, HEPES buffer pH 7.4, 37° C., 10 μM ATP, 0.2 mg/mL Poly(Glu:Tyr)
T1 construct: host or cells: insect cells
T1 sequence (P00533 25-1210): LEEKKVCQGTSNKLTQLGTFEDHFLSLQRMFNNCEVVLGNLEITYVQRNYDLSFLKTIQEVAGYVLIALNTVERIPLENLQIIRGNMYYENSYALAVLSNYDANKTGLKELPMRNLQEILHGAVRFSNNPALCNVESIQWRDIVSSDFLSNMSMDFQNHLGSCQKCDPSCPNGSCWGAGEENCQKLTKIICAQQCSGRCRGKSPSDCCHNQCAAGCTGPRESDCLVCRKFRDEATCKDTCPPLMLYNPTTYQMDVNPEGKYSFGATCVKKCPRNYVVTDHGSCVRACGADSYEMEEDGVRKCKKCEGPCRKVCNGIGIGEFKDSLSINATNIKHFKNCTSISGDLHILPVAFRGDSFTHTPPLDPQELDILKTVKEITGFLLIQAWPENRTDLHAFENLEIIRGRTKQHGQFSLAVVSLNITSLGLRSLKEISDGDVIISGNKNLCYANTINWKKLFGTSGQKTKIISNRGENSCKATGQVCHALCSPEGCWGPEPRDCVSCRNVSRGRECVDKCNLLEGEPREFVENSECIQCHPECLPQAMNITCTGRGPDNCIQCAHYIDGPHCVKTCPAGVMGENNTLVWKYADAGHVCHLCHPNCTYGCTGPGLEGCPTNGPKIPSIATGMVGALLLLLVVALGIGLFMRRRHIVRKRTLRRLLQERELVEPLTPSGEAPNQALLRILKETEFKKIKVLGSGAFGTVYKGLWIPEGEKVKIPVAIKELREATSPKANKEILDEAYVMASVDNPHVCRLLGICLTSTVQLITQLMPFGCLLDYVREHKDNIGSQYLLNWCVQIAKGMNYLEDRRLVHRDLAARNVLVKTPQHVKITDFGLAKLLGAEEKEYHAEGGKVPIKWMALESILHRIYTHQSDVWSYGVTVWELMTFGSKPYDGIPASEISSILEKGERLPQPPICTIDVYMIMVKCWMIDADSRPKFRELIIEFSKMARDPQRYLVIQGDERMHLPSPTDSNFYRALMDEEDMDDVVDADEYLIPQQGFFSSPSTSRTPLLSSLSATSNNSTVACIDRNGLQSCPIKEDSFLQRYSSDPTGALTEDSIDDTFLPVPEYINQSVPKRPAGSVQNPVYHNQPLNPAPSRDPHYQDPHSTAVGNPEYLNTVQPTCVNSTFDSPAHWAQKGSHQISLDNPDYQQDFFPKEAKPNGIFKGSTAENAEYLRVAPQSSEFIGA
Procedure: The study was commissioned to Eurofins Panlabs. The study was performed using recombinant human epidermal growth factor receptor (EGFR) tyrosine kinase expressed in insect cells. First, epidermal growth factor receptor (EGFR) tyrosine kinase (0.134 μg/mL) was incubated in HEPES buffer (pH 7.4) with 100 or 1000 μM L-ergothioneine at 37° C. for 15 minutes. Then, 0.2 mg/mL Poly(Glu:Tyr), 10 μM ATP, and 0.25 μCi [γ^32P] ATP were added. Thereby, an enzymatic reaction was initiated. After incubating at 37° ° C. for 30 minutes, 3% H3PO4 was added to terminate the reaction. Lastly, the activity of ergothioneine to inhibit substrate binding was evaluated using the amount of [^32P]Poly(Glu:Tyr) formed in the reaction as an index.

[3] = mice orally administered with ergothioneine vs mice not administered; cited from earlier work
[4] = tested on: IL-6, IL-12p40, IL-1β, and IL-10; conditions: absence of the TLR ligand, ergothioneine concentration 0 or 10 mM; cited from earlier work

C[N+](C)(C)[C@@H](Cc1c[nH]c(=S)[nH]1)C(=O)[O-] [L-ergothioneine]
amount of change in blood basophil count (Δ in basophils (%)) [1]: significantly increased | amount of change in blood leukocyte count (Δ in leukocytes (cells/μL)) [1]: significantly increased | activity to inhibit substrate binding of epidermal growth factor receptor (EGFR) tyrosine kinase [2]: showed an activity to inhibit substrate binding | peritesticular fat weight [3]: lower | triglyceride (neutral fat) level in plasma [3]: lower | detection of IL-6, IL-12p40, IL-1β, and IL-10 [4]: none of IL-6, IL-12p40, IL-1β, and IL-10 was detected
